Experimental data: US20080305049A1, “Mri Contrast Agents for Diagnosis and Prognosis of Tumors” (priority 2005, published 2008)
Entries after “also recorded” stand apart in the source; their conditions may differ.

Assays:
[1] = system: MDA-MB-231 cells; experiment: proliferation of ER− human breast cancer cells (MTT method)
Experimental: The number of cells was determined spectrophotometrically using the MTT [3-(4,5-dimethylthiazol-2-yl)-2,5-diphenyltetrazolium bromide] method. The samples are read using an ELISA plate reader at a wavelength of 570 nm. The amount of color produced is directly proportional to the number of viable cells.

[2] = molecular target: T1, human recombinant ER (ERα) (Homo sapiens, UniProt P03372); experiment: competitive radiometric binding assay with tritiated estradiol; conditions: for IC50 / Ki: human recombinant ER; for IC50: read-out: IC50, concentration of competing ligand required to replace half of the ER bound tritiated estradiol; for Ki: read-out: Ki, calculated equilibrium concentration of competing ligand that binds half of the ER binding sites
T1 sequence (P03372 1-595): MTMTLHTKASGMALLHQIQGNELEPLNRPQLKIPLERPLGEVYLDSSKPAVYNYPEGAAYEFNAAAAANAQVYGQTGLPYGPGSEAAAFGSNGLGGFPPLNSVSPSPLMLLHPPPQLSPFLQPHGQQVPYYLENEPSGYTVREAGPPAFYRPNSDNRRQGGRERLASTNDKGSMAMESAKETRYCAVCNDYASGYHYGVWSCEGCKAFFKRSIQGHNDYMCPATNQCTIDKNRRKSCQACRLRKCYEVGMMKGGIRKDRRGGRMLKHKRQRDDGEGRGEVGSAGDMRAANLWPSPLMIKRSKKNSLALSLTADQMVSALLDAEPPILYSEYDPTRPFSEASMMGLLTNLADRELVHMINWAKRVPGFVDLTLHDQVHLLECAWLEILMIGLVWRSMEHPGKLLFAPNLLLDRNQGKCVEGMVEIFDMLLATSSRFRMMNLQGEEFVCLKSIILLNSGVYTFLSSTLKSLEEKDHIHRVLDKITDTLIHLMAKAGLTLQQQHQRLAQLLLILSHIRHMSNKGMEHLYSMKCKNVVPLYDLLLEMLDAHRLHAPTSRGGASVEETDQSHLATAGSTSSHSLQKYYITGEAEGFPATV
Experimental: This procedure yields IC50 displacement values for the inhibition of the binding of tritiated estradiol to the ER. Low IC50 values correlates to high binding affinities.
The binding affinities were determined by performing a competitive radiometric-binding assay using tritiated estradiol and human recombinant ER. […] Table 1 presents the concentration of the competing ligand required to replace half of the ER bound tritiated estradiol, IC50, and the calculated equilibrium concentration of the competing ligand that will bind to half of the ER binding sites, Ki.

[3] = molecular target: T2, estrogen receptor (ER)-α in MCF7 cells (Homo sapiens, UniProt P03372); experiment: Western blot of ER-α level relative to tubulin; assay type: cell-based; conditions: 6 hours after treatment
T2 construct: endogenous in cells; host or cells: MCF7 human breast cancer cells
T2 sequence (P03372 1-595): T1 sequence (P03372 1-595)
Description: FIG. 10B is a graph showing the quantitative analysis of the blots in terms of ER expression relative to tubulin expression under the various treatments as indicated in the figure.
We then carried out a Western blot for determining the level of the estrogen receptor protein using an anti-ER antibody to identify ER in the blot. […] FIG. 10A depicts the Western blot and FIG. 10B depicts quantitation of the blot: the amount of ER relative to tubulin, assuming tubulin is constant under all treatment manipulations.

[4] = system: MCF7, T47D and ZR-75-1 ER+ human breast cancer cells; experiment: proliferation of ER+ human breast cancer cells (MTT method); assay type: cell-based; conditions: for agonistic or antagonistic effect on proliferation: 2 μM
Experimental: The agonistic or antagonistic effects of the conjugates and metal complexes thereof were studied by their capacity to enhance or arrest cell growth, respectively.
The vehicle (water) was added as control and served to normalize the changes in cell number.

[5] = toxicology after intravenous injection; assay type: in vivo, CD1-NU mice
Description: (§1) Animals: CD1-NU immunodeficient female mice (6-10 weeks old, 20-25 g weight) were provided by the Animal Unit of the Weizmann Institute of Science. During the MRI experiments, the animals were anesthetized by inhalation of 1% Isoflurane in an O2:N2O (3:7) mixture, applied through a nose cone. All animals were handled according to the regulations formulated by the Institutional Animal Care and Use Committee (IACUC) of the Weizmann Institute of Science (Rehovot, Israel).
Toxicology: The probes (e.g. Gd complex 7) were injected into the tail vein of CD1-NU mice at a varying dose in the range of 0.024 to 1.0 mmol/kg weight.

[6] = T1 and T2 relaxivity of water at 4.7 Tesla; assay type: physicochemical
Experimental: The T1 and T2 relaxivity of the MRI probes, i.e., the Gd complexes of the invention, were measured in saline solutions using standard protocols (i.e inversion recovery for T1 relaxivity and Carr-Purcell-Meiboom-Gill (CPMG) for T2 relaxivity).
The capacity of the Gd complex 7 to serve as a relaxation contrast agent was determined by measuring its relaxivity. […] For the T1 relaxivity measurement, a spin echo sequence was employed with a varying repetition time-TR (11 TRs, from 50 to 15,000 msec) and a fixed echo time of 23 msec.
The T1 relaxivity was determined from the slope.
We determined the MRI properties of the novel paramagnetic ER ligands. T1 and T2 relaxation rates of the water protons were measured as a function of the concentration of the Gd complex 7.

[7] = system: rat uterus; experiment: MRI of the uterus of ovariectomized rats; assay type: in vivo; conditions: 0.024 mmol/kg
Experimental: We developed and applied in vivo tests of the Gd complex 7 in the classical target organ of estrogen (the rat uterus). […] In order to be able to delineate the uterus, we applied a newly developed segmentation algorithm that enables us to automatically monitor changes in the entire uterine volume and in the changing nuclear relaxation rates due to interaction with 7. […] The endometrium volume increased by 45%, over the entire monitoring period of 5.5 hours, indicating response to the Gd complex 7, as shown in FIGS. 11A-11E.
FIG. 11A depicts the T2-weighted images prior to administration and FIG. 11B depicts the T2-weighted images after 5 hours of administration of compound 7 (the endometrium is circled in green) with the corresponding 3D automatically delineated right horn (FIGS. 11C and 11D) and the corresponding changes in the volume during the entire time course (FIG. 11E).

[8] = system: orthotopic ER+ MCF7 breast tumor; experiment: in vivo MRI monitoring of distribution and binding in mice with orthotopic MCF7 breast tumor; set-up: species or system CD1-NU immunodeficient female mice
Description: as §1
(§2) Tumors: ER^+ human breast cancer MCF-7 cells were implanted orthotopically into the mammary gland of the CD1-NU immunodeficient female mice, as previously described (Paran et al., 2004). The mice were ovariectomized to eliminate any […] estrogen. Initially a pellet of 17β-estradiol (Innovative Research, Florida) was implanted before the cells were injected, to ensure growth of the tumors. Within 3 weeks, tumors developed to a size of about ˜0.5 ml and consisted of highly proliferating cells. At this stage we removed the estrogen pellet and after a week administered the MRI probe. The extent of accumulation in the tumors was studied in vivo and in excised tumors and was then compared to results obtained by the standard immunostaining technique.
(§3) MRI: The accumulation of the MRI probe was tested by scanning the tumors before the injection of the probe and at times after the injection, using T1 weighted and T2 weighted pulse sequences. MR images were recorded with a 4.7 Tesla scanner (Bruker; Biospec 4.7 T/30 cm bore, dedicated Doty resonator, 3 cm diameter, 200 MHz for protons). The MRI parameters for scanning T2-weighted images were: 2D Spin echo with: TE/TR=69 msec/4000 msec, field of view (FOV) 5 cm, slice thickness 1.2 mm and 128×256 matrix. For T1 measurements two pulse sequences were employed: 1. Inversion recovery pulse sequence with varying T1 (n=20) ranging from 10 to 10000 msec, TE/TR=3.15 msec/15 msec, flip angle 10 degrees; 2. Fast gradient echo sequence. The spatial resolution was as in the T2 weighted image except the matrix was 128×128.
(§4) Distribution of the MR probes: The distribution of the Gd complex 7 in the blood, inner organs and the tumors was monitored over a period of 24 h after a bolus injection of 7 into the tail vein at a dose ranging from 0.024 to 0.4 mmol/kg.
(§5) The contrast agent distribution was monitored, alternating between two pulse sequences: 1. T1-weighted, 3D gradient echo with TE/TR of 4.3/18.3 ms; a 30° flip angle, 2. 2D inversion or saturation recovery sequence with varying T1 (n=20) ranging from 10 to 10000 msec, and gradient echo acquisition with TE/TR of 3.5/15 msec and 100 flip angel. The latter sequence enabled us to map the T1 relaxation time. The spatial resolution was the same for both sequences and during the whole experiment time, namely, 0.2×0.4×1.2 mm^3. Susceptibility gradient echo and T2 weighted spin echo protocols were employed to generate the MR images of the animal.
(§6) Several protocols of administration of the Gd complex 7 were examined: a high and low dose bolus injection of 0.4 mmol/kg and 0.024 mmol/kg, respectively (FIGS. 7 and 8), and a slow infusion (drip) protocol over 60 min of the high dose.
(§7) To determine the ER-binding of 7 administered at low concentration (0.024 mmol/kg), we performed measurements up to 24 after its administration, when all the tissues appeared to be cleared from the probe. FIGS. 7A-7B show the time course of the T1 relaxation in the bladder, orthotopic MCF7 breast tumor and muscle of a female CD1-NU immunodeficient mouse after a bolus administration of a low dose of 7 (0.024 mmol/kg) (7B) and the area of each organ as marked on the upper T2-weighted image (FIG. 7A). The images at 0, 0.5 and 2.5 h were recorded with the anaesthetized mouse in the same position. After the 2.5 h measurement, the mouse was returned to its cage and was again scanned under anesthesia at the 7 and 24 hours time points. […] The central slice of each organ is presented. […]

[9] = as above; set-up: species or system CD1-NU immunodeficient female mice; conditions: female, CD1-NU, mouse, tumor (orthotopic MCF7 breast tumor), intravenous; 24 hours after bolus 0.024 mmol/kg, calculated from relaxation rates; read-out: apparent concentration in the tumor
Description: as §1, §2, §3, §4, §5, §6, §7

[10] = bolus 0.4 mmol/kg, about 5 hours

Q: With `C[C@]12CC[C@@H]3c4ccc(O)cc4CC[C@H]3[C@@H]1CC[C@@H]2O` [17β-estradiol, reference compound] as the compound, how does the “sensitivity of proliferation of ER− cells” value [1] read?
A: Its value is “neither sensitive”.

Q: What does the source list for `C[C@]12CCC3c4ccc(O)cc4CCC3C1CC[C@@]2(O)C#Cc1cc(CN(CC(=O)O)CC(=O)O)nc(CN(CC(=O)O)CC(=O)O)c1` (stereo partly shown) [Compound 6]?
A: IC50 [2]: 4.4 µM; Ki [2]: 400 nM; effect on ER-α level [3]: induced partial degradation of the receptor; also recorded: induce ER reduction; sensitivity of proliferation of ER− cells [1]: neither sensitive; dose at which induction of proliferation occurred ([4]; ER+ human breast cancer cells): nanomolar; stimulation of cell growth ([4]; MCF7, T47D, ZR-75-1, 30 nM or 1 μM): stimulated the growth of the cells in a similar manner to that of estrogen; agonistic or antagonistic effect on proliferation ([4]; MCF7, T47D): agonistic; toxicity to cells ([4]; high concentrations): toxic at high concentrations

Q: Which “binding affinity to ER (in words)” value [2] does the source give for `CC12CCC3c4ccc(O)cc4CCC3C1CCC2(O)C#Cc1cc(CN(CC(=O)O)CC(=O)O)nc(CN(CC(=O)O)CC(=O)O)c1` (stereo not shown) [Compound 7] here?
A: The value was “strong binding affinity to ER, comparable to that of tamoxifen”.

Q: What about the “toxicity (summary statement)” value ([5]; mice and rats) of the same compound?
A: Its value is “non toxic in mice and rats”.

Q: And the “tolerability of repetitive administration” value ([5]; repetitive administration 3-7 days apart)?
A: Its value is “appeared to be harmless”.

Q: What about the “lethality and adverse effects” value ([5]; up to 0.4 mmol/kg, intravenous, CD1-NU mice) of the same compound?
A: The value was “not lethal and does not cause obvious adverse effects; also recorded: non-toxic”.

Q: What about the “effect on ER-α level” value [3] of the same compound?
A: The value was “induced partial degradation of the receptor; also recorded: induce ER reduction”.

Q: And the T1 relaxivity [6]?
A: The T1 relaxivity was 7.99 ± 0.05 mM⁻¹ s⁻¹.

Q: What about the T2 relaxivity [6] of the same compound?
A: The T2 relaxivity was 30.8 ± 1.0 mM⁻¹ s⁻¹.

Q: What about the “sensitivity of proliferation of ER− cells” value [1] of the same compound?
A: Its value is “neither sensitive”.

Q: And the “effect in the uterus” value [7]?
A: The value was “agonistic effect in the uterus”.

Q: What about the “increase of endometrium volume” value ([7]; over 5.5 hours) of the same compound?
A: Its value is 45%.

Q: What about the “final concentration in tumor versus muscle” value ([8]; 2 h after 1 hour slow infusion of 0.4 mmol/kg) of the same compound?
A: Its value is “similar”.

Q: And the “muscle T1 relaxation rate (R1)” value ([8]; 24 hours after 0.024 mmol/kg)?
A: The value was “returned to that measured before”.

Q: And the “tumor T1 relaxation rate (R1) increase” value ([8]; 24 hours after 0.024 mmol/kg)?
A: Its value is “small but persistent”.

Q: What about the “residual amount in the muscle” value ([8]; 24 hours after bolus 0.024 mmol/kg) of the same compound?
A: The value was “no residual amount”.

Q: And the “clearance through the kidneys into the urine compared with GdDTPA” value ([8]; bolus 0.4 mmol/kg)?
A: Its value is “several folds slower”.

Q: And the “time of full clearance after administration” value ([8]; bolus 0.4 mmol/kg)?
A: The value was 24 h.

Q: And the “MRI signal enhancement in the muscle” value [8, 10]?
A: Its value is “declined close to pre-contrast administration”.

Q: And the “MRI signal enhancement in the tumor” value [8, 10]?
A: Its value is “persisted throughout the experimental time”.

Q: And the concentration at 24 h [9]?
A: Its concentration at 24 h is 2500 nM.

Q: For `CC/C(=C(\c1ccc(C#Cc2cc(CN(CC(=O)O)CC(=O)O)nc(CN(CC(=O)O)CC(=O)O)c2)cc1)c1ccc(OCCN(C)C)cc1)c1ccccc1` [Compound 16], which IC50 [2] is on record?
A: Its IC50 is 5.3 µM.

Q: What about the Ki [2] of the same compound?
A: Its Ki is 480 nM.

Q: And the “effect on ER-α level” value [3]?
A: The value was “acted like tamoxifen; also recorded: do not affect ER level”.

Q: What about the “hormonal activity (summary statement)” value [4] of the same compound?
A: The value was “antagonist to estrogen”.

Q: What about the “agonistic or antagonistic effect on proliferation” value ([4]; MCF7, T47D) of the same compound?
A: The value was “did not elicit an estrogenic effect”.

Q: Which “effect on ER-α level” value [3] does the source give for `C[C@]12CC[C@@H]3c4ccc(O)cc4C[C@@H](CCCCCCCCC[S+]([O-])CCCC(F)(F)C(F)(F)F)[C@H]3[C@@H]1CC[C@@H]2O` (stereo partly shown) [ICI-182780, reference compound] here?
A: Its value is “down regulation”.
